In PubChem BioAssay (NCI):
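The concentration for 50% growth inhibition is given as GI50. TGI: concentration producing complete growth inhibition.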

Key:
Experiment in all cases: NCI anticancer screen, dose series, 384-well format
786-0 renal = tested on: 786-0 renal
A498 renal = tested on: A498 renal
A549 NSCLC = tested on: A549 NSCLC
ACHN renal = tested on: ACHN renal
BT-549 breast = tested on: BT-549 breast
CAKI-1 renal = tested on: CAKI-1 renal
CCRF-CEM leukemia = tested on: CCRF-CEM leukemia
COLO 205 colon = tested on: COLO 205 colon
DU-145 prostate = tested on: DU-145 prostate
EKVX NSCLC = tested on: EKVX NSCLC
HCC-2998 colon = tested on: HCC-2998 colon
HCT-116 colon = tested on: HCT-116 colon
HCT-15 colon = tested on: HCT-15 colon
HL-60(TB) leukemia = tested on: HL-60(TB) leukemia
HOP-62 NSCLC = tested on: HOP-62 NSCLC
HOP-92 NSCLC = tested on: HOP-92 NSCLC
HS 578T breast = tested on: HS 578T breast
IGROV1 ovarian = tested on: IGROV1 ovarian
K-562 leukemia = tested on: K-562 leukemia
LOX IMVI melanoma = tested on: LOX IMVI melanoma
M14 melanoma = tested on: M14 melanoma
MALME-3M melanoma = tested on: MALME-3M melanoma
MCF7 breast = tested on: MCF7 breast
MDA-MB-231 breast = tested on: MDA-MB-231 breast
MDA-MB-435 melanoma = tested on: MDA-MB-435 melanoma
MDA-MB-468 breast = tested on: MDA-MB-468 breast
MOLT-4 leukemia = tested on: MOLT-4 leukemia
NCI-H226 lung = tested on: NCI-H226 lung
NCI-H23 lung = tested on: NCI-H23 lung
NCI-H322M lung = tested on: NCI-H322M lung
NCI-H460 NSCLC = tested on: NCI-H460 NSCLC
NCI-H522 lung = tested on: NCI-H522 lung
NCI/ADR-RES ovarian = tested on: NCI/ADR-RES ovarian
OVCAR-3 ovarian = tested on: OVCAR-3 ovarian
OVCAR-4 ovarian = tested on: OVCAR-4 ovarian
OVCAR-8 ovarian = tested on: OVCAR-8 ovarian
PC-3 prostate = tested on: PC-3 prostate
RPMI-8226 leukemia = tested on: RPMI-8226 leukemia
RXF 393 renal = tested on: RXF 393 renal
SF-268 CNS = tested on: SF-268 CNS
SF-539 CNS = tested on: SF-539 CNS
SK-MEL-28 melanoma = tested on: SK-MEL-28 melanoma
SK-MEL-5 melanoma = tested on: SK-MEL-5 melanoma
SK-OV-3 ovarian = tested on: SK-OV-3 ovarian
SN12C renal = tested on: SN12C renal
SNB-19 CNS = tested on: SNB-19 CNS
SNB-75 CNS = tested on: SNB-75 CNS
SR leukemia = tested on: SR leukemia
SW-620 colon = tested on: SW-620 colon
T-47D breast = tested on: T-47D breast
TK-10 renal = tested on: TK-10 renal
U251 glioblastoma = tested on: U251 glioblastoma
UACC-257 melanoma = tested on: UACC-257 melanoma
UACC-62 melanoma = tested on: UACC-62 melanoma
UO-31 renal = tested on: UO-31 renal

`COc1cc(OC)cc(N2CCN(C(=O)Nc3nc4cc(F)ccc4nc3OC)CC2)c1` was tested, and the GI50 ([…]-0 renal) was 28.4 nM, the TGI (786-0 renal) was 267 nM and the GI50 (A498 renal) was less than 10 nM. The TGI (A498 renal) was 96.6 nM, the GI50 (A549 NSCLC) was 38.2 nM and the TGI (A549 NSCLC) was 18500 nM. For the same compound, the GI50 (ACHN renal) was 65.7 nM, the TGI (ACHN renal) was 20200 nM and the GI50 (BT-549 breast) was 23.7 nM. It also gave a TGI (BT-549 breast) of 68.5 nM, a GI50 (CAKI-1 renal) of 15.8 nM and a TGI (CAKI-1 renal) of 15100 nM. For the same compound, the GI50 (CCRF-CEM leukemia) was 18.7 nM, the TGI (CCRF-CEM leukemia) was 33.3 nM and the GI50 (COLO 205 colon) was 27.7 nM. For the same compound, the TGI (COLO 205 colon) was 84.8 nM, the GI50 (DU-145 prostate) was 34.7 nM and the TGI (DU-145 prostate) was 249 nM. The GI50 (EKVX NSCLC) was 27.5 nM, the TGI (EKVX NSCLC) was 14600 nM and the GI50 (HCC-2998 colon) was 20.7 nM. It also gave a TGI (HCC-2998 colon) of 76.9 nM, a GI50 (HCT-116 colon) of 31.2 nM and a TGI (HCT-116 colon) of 151 nM. For the same compound, the GI50 (HCT-15 colon) was 22.4 nM, the TGI (HCT-15 colon) was 1180 nM and the GI50 (HL-60(TB) leukemia) was 16.5 nM. The TGI (HL-60(TB) leukemia) was 30.6 nM, the GI50 (HOP-62 NSCLC) was 21.8 nM and the TGI (HOP-62 NSCLC) was 1700 nM. It also gave a GI50 (HOP-92 NSCLC) of 48.3 nM, a TGI (HOP-92 NSCLC) of 15600 nM and a GI50 (HS 578T breast) of 17 nM. It also gave a TGI (HS 578T breast) of 35.6 nM, a GI50 (IGROV1 ovarian) of 42.5 nM and a TGI (IGROV1 ovarian) of 15000 nM. It also gave a GI50 (K-562 leukemia) of 17.4 nM, a TGI (K-562 leukemia) of 43.3 nM and a GI50 (LOX IMVI melanoma) of 39.8 nM. For the same compound, the TGI (LOX IMVI melanoma) was 380 nM, the GI50 (M14 melanoma) was 15.7 nM and the TGI (M14 melanoma) was 38.2 nM. It also gave a GI50 (MALME-3M melanoma) of 24.7 nM, a TGI (MALME-3M melanoma) of 14800 nM and a GI50 (MCF7 breast) of 26.2 nM. For the same compound, the TGI (MCF7 breast) was 5570 nM, the GI50 (MDA-MB-231 breast) was 54.5 nM and the TGI (MDA-MB-231 breast) was 84700 nM. It also gave a GI50 (MDA-MB-435 melanoma) of less than 10 nM, a TGI (MDA-MB-435 melanoma) of 21.2 nM and a GI50 (MDA-MB-468 breast) of 16.1 nM. The TGI (MDA-MB-468 breast) was 32.1 nM, the GI50 (MOLT-4 leukemia) was 18.2 nM and the TGI (MOLT-4 leukemia) was 32.8 nM. The GI50 (NCI-H226 lung) was 18.6 nM, the TGI (NCI-H226 lung) was 70.8 nM and the GI50 (NCI-H23 lung) was 20.7 nM. The TGI (NCI-H23 lung) was 55.4 nM, the GI50 (NCI-H322M lung) was 64 nM and the TGI (NCI-H322M lung) was 37600 nM. For the same compound, the GI50 (NCI-H460 NSCLC) was 21.1 nM, the TGI (NCI-H460 NSCLC) was 48.7 nM and the GI50 (NCI-H522 lung) was less than 10 nM. It also gave a TGI (NCI-H522 lung) of 22 nM, a GI50 (NCI/ADR-RES ovarian) of 14 nM and a TGI (NCI/ADR-RES ovarian) of 32.1 nM. It also gave a GI50 (OVCAR-3 ovarian) of 12.1 nM, a TGI (OVCAR-3 ovarian) of 31.4 nM and a GI50 (OVCAR-4 ovarian) of 314 nM. For the same compound, the TGI (OVCAR-4 ovarian) was 31700 nM, the GI50 (OVCAR-8 ovarian) was 27.6 nM and the TGI (OVCAR-8 ovarian) was 91.2 nM. For the same compound, the GI50 (PC-3 prostate) was 25.4 nM, the TGI (PC-3 prostate) was 15200 nM and the GI50 (RPMI-8226 leukemia) was 17 nM. The TGI (RPMI-8226 leukemia) was 31.8 nM, the GI50 (RXF 393 renal) was less than 10 nM and the TGI (RXF 393 renal) was 21.9 nM. It also gave a GI50 (SF-268 CNS) of 30.4 nM, a TGI (SF-268 CNS) of 415 nM and a GI50 (SF-539 CNS) of 18.2 nM. The TGI (SF-539 CNS) was 49.5 nM, the GI50 (SK-MEL-28 melanoma) was 120 nM and the TGI (SK-MEL-28 melanoma) was 22300 nM. It also gave a GI50 (SK-MEL-5 melanoma) of 13.1 nM, a TGI (SK-MEL-5 melanoma) of 45.3 nM and a GI50 (SK-OV-3 ovarian) of 35.1 nM. It also gave a TGI (SK-OV-3 ovarian) of 11700 nM, a GI50 (SN12C renal) of 28 nM and a TGI (SN12C renal) of 16200 nM. For the same compound, the GI50 (SNB-19 CNS) was 36.3 nM, the TGI (SNB-19 CNS) was 12800 nM and the GI50 (SNB-75 CNS) was 23.4 nM. It also gave a TGI (SNB-75 CNS) of 127 nM, a GI50 (SR leukemia) of less than 10 nM and a GI50 (SW-620 colon) of 36.5 nM. For the same compound, the TGI (SW-620 colon) was 18800 nM, the GI50 (T-47D breast) was 55.4 nM and the TGI (T-47D breast) was 19600 nM. It also gave a GI50 (TK-10 renal) of 57.1 nM, a TGI (TK-10 renal) of 23100 nM and a GI50 (U251 glioblastoma) of 32.7 nM. For the same compound, the TGI (U251 glioblastoma) was 12100 nM, the GI50 (UACC-257 melanoma) was 37.2 nM and the TGI (UACC-257 melanoma) was 20100 nM. The GI50 (UACC-62 melanoma) was less than 10 nM, the TGI (UACC-62 melanoma) was 15000 nM and the GI50 (UO-31 renal) was 51.3 nM. It also gave a TGI (UO-31 renal) of 18300 nM.
